Measurements from the supplement of paper PMC10307832.

Legend:
Test in all cases: relative viability (nuclei count vs DMSO), 5 days (fraction); higher = more cells survive
[1] = compound: C[C@@H](N)c1ccc(C(=O)Nc2ccnc3[nH]ccc23)cc1 + CC(C)C[C@H](NC(=O)[C@H](Cc1ccccc1)NC(=O)c1cnccn1)B(O)O [Bortezomib] (partner 0.002 µM)
Summary of the method: (§1)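 A single step with final 0.05% Triton X-100, 1% formaldehyde and 1 ug/ml Hoechst fixed the cells and stained nuclei 5 days after treatment. Lung cancer cell lines in 1536-well plates had been treated by pin tool the day after seeding with one drug alone or a fixed anchor-drug dose plus five library-drug doses (not always all listed) in √10 steps, and nuclei were counted on 4× images. Relative viability is the ratio of nuclei in treated wells to nuclei in vehicle wells, taken as the median of duplicate plates.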

Tanzisertib + Lapatinib = compound: O[C@H]1CC[C@H](Nc2ncc3nc(Nc4c(F)cc(F)cc4F)n([C@H]4CCOC4)c3n2)CC1 [Tanzisertib] + CS(=O)(=O)CCNCc1ccc(-c2ccc3ncnc(Nc4ccc(OCc5cccc(F)c5)c(Cl)c4)c3c2)o1 [Lapatinib] (partner 2 µM)
Summary of the method: as §1

Tanzisertib + Foretinib = compound: O[C@H]1CC[C@H](Nc2ncc3nc(Nc4c(F)cc(F)cc4F)n([C@H]4CCOC4)c3n2)CC1 [Tanzisertib] + COc1cc2c(Oc3ccc(NC(=O)C4(C(=O)Nc5ccc(F)cc5)CC4)cc3F)ccnc2cc1OCCCN1CCOCC1 [Foretinib] (partner 0.25 µM)
Summary of the method: as §1

Tanzisertib + Crizotinib = compound: O[C@H]1CC[C@H](Nc2ncc3nc(Nc4c(F)cc(F)cc4F)n([C@H]4CCOC4)c3n2)CC1 [Tanzisertib] + C[C@@H](Oc1cc(-c2cnn(C3CCNCC3)c2)cnc1N)c1c(Cl)ccc(F)c1Cl [Crizotinib] (partner 1 µM)
Summary of the method: as §1

Cell Line	relative viability ([1]; first compound 0.04 µM)	relative viability ([1]; first compound 0.1265 µM)	relative viability ([1]; first compound 0.4 µM)	relative viability ([1]; first compound 4 µM)	relative viability (Tanzisertib + Lapatinib; first compound 0.08 µM)	relative viability (Tanzisertib + Lapatinib; first compound 0.253 µM)	relative viability (Tanzisertib + Lapatinib; first compound 0.8 µM)	relative viability (Tanzisertib + Lapatinib; first compound 2.53 µM)	relative viability (Tanzisertib + Lapatinib; first compound 8 µM)	relative viability (Tanzisertib + Foretinib; first compound 0.08 µM)	relative viability (Tanzisertib + Foretinib; first compound 0.253 µM)	relative viability (Tanzisertib + Foretinib; first compound 0.8 µM)	relative viability (Tanzisertib + Foretinib; first compound 2.53 µM)	relative viability (Tanzisertib + Foretinib; first compound 8 µM)	relative viability (Tanzisertib + Crizotinib; first compound 0.08 µM)	relative viability (Tanzisertib + Crizotinib; first compound 0.253 µM)	relative viability (Tanzisertib + Crizotinib; first compound 0.8 µM)	relative viability (Tanzisertib + Crizotinib; first compound 2.53 µM)	relative viability (Tanzisertib + Crizotinib; first compound 8 µM)	relative viability ([1]; first compound 1.265 µM)
NCI-H2347	0.955	1.02	1.08	1.09	1.05	1.01	0.971	1.07	0.869	1.12	0.792	0.95	1.25	0.629	0.675	0.765	0.739	0.945	0.827	–
HCC-78	0.504	0.42	0.661	0.313	0.72	0.7	0.827	0.786	0.303	0.545	0.614	0.584	0.583	0.585	0.287	0.331	0.313	0.332	0.286	0.69
COR-L23	0.827	0.983	1.03	0.341	1.12	0.954	0.961	1.07	0.98	1.01	0.966	1	1.13	1	0.861	0.669	0.638	0.701	0.709	0.779
NCI-H1993	1.19	1.13	–	1.15	0.815	0.846	0.914	0.777	0.748	0.823	0.841	0.844	0.786	0.73	0.855	0.886	0.891	0.789	0.789	0.943
NCI-H2405	0.895	0.973	0.903	0.491	1.26	1.11	1.1	1.36	0.612	1.1	1.08	1.07	1.17	1.03	0.935	0.825	0.828	0.916	0.789	0.274
NCI-H2126	1.13	1.11	1.17	1.22	0.772	0.807	0.82	0.694	0.724	1.24	1.21	1.15	1.19	1.12	1.09	1.01	1.03	0.985	1.03	1.14
NCI-H1734	0.847	0.915	0.911	0.759	1.15	1.13	0.952	1.16	1.08	0.923	0.781	0.845	0.87	0.789	0.743	0.658	0.72	0.738	0.599	–
A-427	0.985	1.06	0.984	0.764	1.19	1.18	1.04	1.04	1.12	1.18	1.05	1.02	0.939	1.04	0.995	0.85	0.931	0.902	0.846	–
RERF-LC-KJ	1.19	1.21	1.2	1.12	0.872	0.873	0.884	0.8	0.892	0.929	0.788	0.873	0.841	0.842	0.865	0.804	0.859	0.856	0.798	1.24
NCI-H727	1.09	1.05	1.38	1.12	0.934	0.872	0.952	0.988	0.842	0.88	1.02	0.662	0.936	0.91	0.797	0.853	0.787	1.02	0.832	0.67
LCLC-97TM1	0.827	0.619	0.764	0.375	–	0.92	0.696	0.568	0.863	0.928	0.945	0.89	0.854	0.946	–	0.331	0.417	0.262	0.427	0.603
BEN	0.765	0.736	0.875	0.457	0.773	0.806	0.721	0.795	0.712	0.619	0.75	0.679	0.766	0.828	0.846	0.775	0.914	0.845	0.878	0.909
NCI-H2023	0.948	0.925	1.1	0.953	0.92	0.809	0.867	0.925	0.261	0.853	0.874	0.936	0.901	0.646	0.568	0.651	0.684	0.607	0.567	0.421
LC-2-ad	1.06	1.05	1.01	0.817	0.991	0.978	1.1	0.989	0.868	0.924	0.913	0.908	0.877	0.884	0.521	0.501	0.415	0.43	0.426	1.03
ABC-1	0.289	0.308	0.333	0.319	1.17	1	–	1.36	1.41	0.91	1.14	0.909	0.876	0.706	1.4	1.07	1.29	1.26	1.26	0.272
NCI-H647	0.846	1.02	1.09	0.869	1.28	1.23	1.01	1.31	0.917	1.23	1.25	1.11	1.29	1.12	1.12	0.975	1.09	1.14	1.01	0.868
NCI-H1755	0.929	0.949	0.966	0.677	1.06	0.98	0.995	1.07	0.968	0.913	0.931	0.882	0.891	0.878	0.85	0.821	0.863	0.839	0.777	0.906
EPLC-272H	1.13	0.987	1.09	0.977	0.929	1.06	0.955	1.22	1.03	0.737	0.692	0.714	0.65	0.666	0.958	0.862	0.864	0.874	0.872	–
NCI-H1437	0.623	0.53	0.563	0.555	0.831	0.859	0.787	0.824	0.778	1.26	1.31	1.32	1.42	1.29	1.07	0.89	0.94	1.01	0.919	0.427
EKVX	1.08	1	1.39	0.971	0.161	0.186	0.208	0.394	0.197	1.08	0.681	0.759	0.872	0.497	0.895	0.867	0.967	0.898	0.853	0.992
NCI-H1651	1.02	0.998	0.997	0.934	0.898	1.03	0.797	0.782	0.864	0.875	0.951	0.794	0.996	0.539	0.851	0.817	0.882	0.833	0.921	0.795
HCC-15	1.11	1.02	1.05	0.93	0.974	0.854	0.888	0.916	0.659	1.13	1.05	1.11	1.02	1.08	0.877	0.811	0.88	0.818	0.872	–
NCI-H23	1.21	1.17	1.11	1.03	1.4	0.998	0.964	1.05	0.936	1.01	1.07	0.996	0.952	1.02	0.568	0.553	0.554	0.601	0.598	–
NCI-H596	1.05	0.856	1.14	1.26	1.18	1.15	1.04	1.09	0.985	0.723	0.82	0.724	0.699	0.76	0.979	1.05	0.955	0.988	0.902	1.23
NCI-H1563	0.776	0.798	0.777	0.897	0.973	0.947	0.967	1.06	1.01	0.983	0.854	0.896	0.96	0.72	0.85	0.937	0.869	0.966	0.79	0.699
NCI-H460	0.996	1.15	1.11	1.09	0.968	0.959	0.949	0.952	1.05	1.05	1.03	0.884	1.07	1.01	1.06	0.897	0.978	0.923	0.791	1.17
HCC-366	1.16	1.08	1.15	1.15	0.985	1.06	1.1	1.07	1.03	0.917	0.918	0.922	0.975	0.917	0.651	0.523	0.671	0.492	0.515	–
